Data reported in patent publication US8252790B2, “Pyrazole-3-carboxamide derivative having 5-HT2B receptor antagonist activity” (Raqualia Pharma Inc., priority 2008, dated 2012).

Test system: TNBS induced IBS model
Experiment: Colonic distension study in TNBS induced rat IBS model (pain threshold)
Format: in vivo
Conditions: male SD rats, TNBS 50 mg/kg, 7 days after surgery; 10 mg/kg p.o.; FIG. 1
Protocol: [Evaluation of Therapeutic Effects on IBS in the Rat]
The pharmacological effects of the test compounds in this invention was evaluated by measuring the improvement effect against lowering of the pain threshold at colon extension stimulation in TNBS induced IBS model.
For details, please refer to the literature, Katsuyo Ohashi at al., Pharmacology, 81(2): 144-150 (2008).
The median incision was conducted under anesthesia in animals, male SD rats, 240-270 g. TNBS solution (50 mg/kg, 30% methanol) was treated at the beginning of the colon in the rats. After the treatment, the cecum is put back into the abdominal cavity. The muscle wall is then sutured. After operation the animals were housed in the normal environment, and were used for the pharmacological evaluation after 7 days from the surgery. The colon extension stimulation was used for the evaluation of the compounds, Diop L. et al., J Pharmacol Exp Ther. 302(3): 1013-22 (2002). The balloon (5 cm in length) is inserted through the anus and kept in position (tip of balloon is 5 cm from the anus). Then the balloon was progressively inflated by step of 5 mm Hg, from 0 to 70 mm Hg by using Barostat (Barostat DISTENDER II R, G & J, CANADA). The pain threshold was evaluated the pressure that corresponded to produced the first abdominal contraction (abdominal cramp: Wesselmann U et al., (1998) Neurosci Lett 246: 73-76). […]

For `Cn1nc(C(=O)NCCN2CCOCC2)cc1-c1cc2cccnc2[nH]1` [Example compound 24, 1-methyl-N-[2-(morpholin-4-yl)ethyl]-5-{1H-pyrrolo[2,3-b]pyridin-2-yl}-1H-pyrazole-3-carboxamide], the “improvement effect against lowering of the pain threshold at colon extension stimulation” value was “improvement effects against lowering of the pain threshold”.
